Results published in patent US9642832B2, “Use of atractylenolide compound or its derivatives and a medicament for inhibiting platelet aggregation” (No. 3 People Hospital Affiliated to Shanghai Jiaotong …, priority 2014, dated 2017).

Experiments:
Format in all cases: cell-based, human
[1] = tested on: platelets; experiment: Platelet aggregation test, thrombin as stimulant; details: for in vitro platelet aggregation inhibition, comparative experiment: under the stimulus of thrombin; for platelet aggregation inhibition: human platelets 3×10^8/mL, compound 0.1, 0.5, 1, 5, 10 μM, incubated 3 mins, thrombin stimulant
[2] = tested on: platelets; experiment: Platelet spreading test on fibrin, phalloidin staining; details: platelets 3×10^7/mL, compound 1, 5, 10 μM, incubated 3 mins, spread on fibrin (40 μg/mL), 100× oil immersion lens
Description: (1) Preparation of platelets: use the same method as abovementioned to prepare platelets counting 3×10^7/mL.
The compound is incubated in platelets for 3 mins. The platelets treated by the drug are spread on fibrin (40 μg/mL). After Staining by the fluorescent antibody phalloidin, the spreading of platelets are observed under the 100× oil immersion lens.
(2) Concentration gradient of compound atractylenolide III; final concentrations of the compound in 100 uL platelets are respectively 1 μM, 5 μM, 10 μM. The compound is incubated in platelets for 3 mins. The platelets treated by the drug are spread on fibrin (40 μg/mL). After staining by the fluorescent antibody phalloidin, the spreading of platelets is observed under the 100× oil immersion lens.

[3] = tested on: Akt molecule; experiment: Western blotting test on phosphorylation levels of related molecules in platelets; details: platelet protein samples collected after the aggregation test
Description: After acquiring the aggregation curve in Example 1, platelet protein samples (2×SDS loading protein lysis buffer) are collected, and tested by Western blotting for phosphorylation levels of related molecules.
Testing the phosphorylation levels of related molecules in the signal pathway using Western blotting, when the PI3K/Akt signal pathway is activated, the Akt molecule is activated via phosphorylation, which leads to the activation of downstream enzymes, kinases, transcription factors (e.g. GSK3), etc.
After acquiring the aggregation curve in Example 2, platelet protein samples (2×SDS loading protein lysis buffer) are collected, and tested by Western blotting for phosphorylation levels of related molecules.

Row | Compound | in vitro platelet aggregation inhibition, comparative experiment ([1]; 150 μM) | in vitro platelet aggregation inhibition, comparative experiment ([1]; 10 μM) | platelet aggregation inhibition [1] | effect on platelet spreading [2] | phosphorylation level of the Akt molecule [3]
1 | CC(=O)Oc1ccccc1C(=O)O [acetylsalicylic acid, reference compound] | does not show the inhibitory effect |  |  |  | 
2 | C=C1CCC[C@]2(C)C[C@]3(O)OC(=O)C(C)=C3C[C@@H]12 [atractylenolide III] |  | has the effect of inhibiting platelet aggregation | has an effect of inhibiting platelet aggregation | has an influence on platelet spreading | affects the phosphorylation level of the Akt molecule
3 | atractylenolide II |  | has the effect of inhibiting platelet aggregation | has an effect of inhibiting platelet aggregation | has an influence on platelet spreading | 
